This assay has as its target T1, androgen receptor (AR-LBD) (Rattus norvegicus, UniProt P15207).
T1 construct: 5 μL of 2×AR-LBD/Fluoromone AL Red Complex contained in the kit; purchased Invitrogen
T1 sequence (P15207 651-882 limits assumed): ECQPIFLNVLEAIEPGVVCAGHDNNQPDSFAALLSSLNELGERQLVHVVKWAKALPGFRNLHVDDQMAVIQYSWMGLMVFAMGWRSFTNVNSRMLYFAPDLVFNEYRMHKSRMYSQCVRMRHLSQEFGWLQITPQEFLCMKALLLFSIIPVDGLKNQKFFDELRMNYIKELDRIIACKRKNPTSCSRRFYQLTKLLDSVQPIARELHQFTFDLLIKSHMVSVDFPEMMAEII
In words: Evaluation of androgen receptor affinity (PolarScreen Androgen Receptor Competitor Assay Kit, Red; fluorescence polarization). The conditions noted are these: 22° C. for 5 hours, relative to binding rate of 1 μM DHT, read-out: AR affinity (pEC50) (converted). In outline: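 Fluorescence polarization read-out after 5 h at 22° C of compound with a red-fluorophore-labelled AR-LBD complex. Displacement is scaled against 1 μM DHT, and the log reciprocal of the concentration reaching half that effect gives pEC50 via four-parameter curve fitting.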

SMILES strings stand for the structures.

In the case of `COc1ccc(CN(c2ccc(C#N)cc2)c2nc(C(=O)NS(C)(=O)=O)c(Br)s2)cc1` [Example 250, 5-bromo-2-[4-cyano-N-[(4-methoxyphenyl)methyl]anilino]-N-methylsulfonyl-thiazole-4-carboxamide], the EC50 is 63.1 nM.
Turning to `Cc1ccccc1CN(c1ccc(C#N)cc1)c1nc(C(=O)NS(C)(=O)=O)c(Cl)s1` [Example 259, 5-chloro-2-[4-cyano-N-(o-tolylmethyl)anilino]-N-methylsulfonyl-thiazole-4-carboxamide], the EC50 was 79.4 nM.
The same measure for `COc1cccc(CN(c2ccc(C#N)cc2)c2nc(C(=O)NS(C)(=O)=O)c(Cl)s2)c1` [Example 260, 5-chloro-2-[4-cyano-N-[(3-methoxyphenyl)methyl]anilino]-N-methylsulfonyl-thiazole-4-carboxamide]: 39.8 nM; for `Cc1sc(N(Cc2ccccc2)c2ccc(S(C)(=O)=O)cc2)nc1C(=O)NS(C)(=O)=O` [Example 261, 2-(N-benzyl-4-methylsulfonyl-anilino)-5-methyl-N-methylsulfonyl-thiazole-4-carboxamide]: 1260 nM; for `Cc1ccccc1CN(c1ccc(C#N)cc1)c1nc(C(=O)NS(C)(=O)=O)c(Br)s1` [Example 264, 5-bromo-2-[4-cyano-N-(o-tolylmethyl)anilino]-N-methylsulfonyl-thiazole-4-carboxamide]: 158 nM.
As to `Cc1cccc(CN(c2ccc(C#N)cc2)c2nc(C(=O)NS(C)(=O)=O)c(Cl)s2)c1` [Example 266, 5-chloro-2-[4-cyano-N-(m-tolylmethyl)anilino]-N-methylsulfonyl-thiazole-4-carboxamide], the EC50 is 31.6 nM.
The same measure for `Cc1ccc(CN(c2ccc(C#N)cc2)c2nc(C(=O)NS(C)(=O)=O)c(Cl)s2)cc1` [Example 267, 5-chloro-2-[4-cyano-N-(p-tolylmethyl)anilino]-N-methylsulfonyl-thiazole-4-carboxamide]: 25.1 nM.
For the compound `Cc1nc(CN(c2ccc(C#N)cc2)c2nc(C(=O)NS(C)(=O)=O)c(Cl)s2)cs1` [Example 278, 5-chloro-2-[4-cyano-N-[(2-methylthiazol-4-yl)methyl]anilino]-N-methylsulfonyl-thiazole-4-carboxamide], the EC50 was 794 nM.
Under `Cc1sc(N(c2ccc(C#N)cc2F)[C@@H](CO)Cc2ccccc2)nc1C(=O)NS(C)(=O)=O` [Example 287, 2-(N-[(1R)-1-benzyl-2-hydroxy-ethyl]-4-cyano-2-fluoro-anilino)-5-methyl-N-methylsulfonyl-thiazole-4-carboxamide] stands greater than 2000 nM; under `Cc1sc(N(Cc2ccccc2)Cc2ccccc2)nc1C(=O)NS(C)(=O)=O` [Example 288, 2-(dibenzylamino)-5-methyl-N-methylsulfonyl-thiazole-4-carboxamide], greater than 2000 nM; under `Cc1sc(N(Cc2ccccc2)Cc2ccc(C#N)cc2)nc1C(=O)NS(C)(=O)=O` [Example 289, 2-[benzyl-[(4-cyanophenyl)methyl]amino]-5-methyl-N-methylsulfonyl-thiazole-4-carboxamide], greater than 2000 nM.
On to `Cc1sc(N(Cc2ccccc2)Cc2cccc(C#N)c2)nc1C(=O)NS(C)(=O)=O` [Example 290, 2-[benzyl-[(3-cyanophenyl)methyl]amino]-5-methyl-N-methylsulfonyl-thiazole-4-carboxamide], for which the EC50 is greater than 2000 nM.
Under `Cc1sc(N(Cc2ccccc2)Cc2ccccc2C#N)nc1C(=O)NS(C)(=O)=O` [Example 291, 2-[benzyl-[(2-cyanophenyl)methyl]amino]-5-methyl-N-methylsulfonyl-thiazole-4-carboxamide] stands greater than 2000 nM.
Consider `Cc1sc(N(C)Cc2ccccc2)nc1C(=O)NS(C)(=O)=O` [Example 292, 2-[benzyl(methyl)amino]-5-methyl-N-methylsulfonyl-thiazole-4-carboxamide], for which the EC50 was greater than 2000 nM.
The same measure for `Cc1sc(N(Cc2ccccc2)Cc2cccnc2)nc1C(=O)NS(C)(=O)=O` [Example 293, 2-[benzyl(3-pyridylmethyl)amino]-5-methyl-N-methylsulfonyl-thiazole-4-carboxamide]: greater than 2000 nM; for `Cc1sc(N(Cc2ccccc2)Cc2ccccn2)nc1C(=O)NS(C)(=O)=O` [Example 295, 2-[benzyl(2-pyridylmethyl)amino]-5-methyl-N-methylsulfonyl-thiazole-4-carboxamide]: greater than 2000 nM.
Under `Cc1sc(N(Cc2ccccc2)Cc2ccncc2)nc1C(=O)NS(C)(=O)=O` [Example 296, 2-[benzyl(4-pyridylmethyl)amino]-5-methyl-N-methylsulfonyl-thiazole-4-carboxamide] stands greater than 2000 nM.
Take `Cc1sc(N(CCCc2ccccc2)Cc2ccccc2)nc1C(=O)NS(C)(=O)=O` [Example 297, 2-[benzyl(3-phenylpropyl)amino]-5-methyl-N-methylsulfonyl-thiazole-4-carboxamide]: the EC50 was 501 nM.
Under `Cc1sc(N(CCC2CCOCC2)Cc2ccccc2)nc1C(=O)NS(C)(=O)=O` [Example 300, 2-[benzyl(2-tetrahydropyran-4-ylethyl)amino]-5-methyl-N-methylsulfonyl-thiazole-4-carboxamide] stands 398 nM.
The same measure for `Cc1sc(N(CCc2ccccc2C#N)Cc2ccccc2)nc1C(=O)NS(C)(=O)=O` [Example 302, 2-[benzyl-[2-(2-cyanophenyl)ethyl]amino]-5-methyl-N-methylsulfonyl-thiazole-4-carboxamide]: 1260 nM.
For the compound `Cc1sc(N(Cc2ccccc2)CC2(c3ccccc3)CC2)nc1C(=O)NS(C)(=O)=O` [Example 304, 2-[benzyl-[(1-phenylcyclopropyl)methyl]amino]-5-methyl-N-methylsulfonyl-thiazole-4-carboxamide], the EC50 is greater than 2000 nM.
As for `COc1ccc(CCN(Cc2ccccc2)c2nc(C(=O)NS(C)(=O)=O)c(C)s2)cc1OC` [Example 307, 2-[benzyl-[2-(3,4-dimethoxyphenyl)ethyl]amino]-5-methyl-N-methylsulfonyl-thiazole-4-carboxamide], the EC50 is greater than 2000 nM.
Under `Cc1sc(N(CCn2cccc2)Cc2ccccc2)nc1C(=O)NS(C)(=O)=O` [Example 309, 2-[benzyl(2-pyrrol-1-ylethyl)amino]-5-methyl-N-methylsulfonyl-thiazole-4-carboxamide] stands greater than 2000 nM; under `Cc1ncsc1CCN(Cc1ccccc1)c1nc(C(=O)NS(C)(=O)=O)c(C)s1` [Example 311, 2-[benzyl-[2-(4-methylthiazol-5-yl)ethyl]amino]-5-methyl-N-methylsulfonyl-thiazole-4-carboxamide], greater than 2000 nM; under `Cc1sc(N(CCc2ccc3ccccc3c2)Cc2ccccc2)nc1C(=O)NS(C)(=O)=O` [Example 312, 2-[benzyl-[2-(2-naphthyl)ethyl]amino]-5-methyl-N-methylsulfonyl-thiazole-4-carboxamide], 631 nM.
The same measure for `Cc1sc(N(CCc2cccc3ccccc23)Cc2ccccc2)nc1C(=O)NS(C)(=O)=O` [Example 314, 2-[benzyl-[2-(1-naphthyl)ethyl]amino]-5-methyl-N-methylsulfonyl-thiazole-4-carboxamide]: greater than 2000 nM.
Under `Cc1sc(N(CCc2c(Cl)cccc2Cl)Cc2ccccc2)nc1C(=O)NS(C)(=O)=O` [Example 316, 2-[benzyl-[2-(2,6-dichlorophenyl)ethyl]amino]-5-methyl-N-methylsulfonyl-thiazole-4-carboxamide] stands greater than 2000 nM; under `Cc1sc(N(CCc2ccc(S(C)(=O)=O)cc2)Cc2ccccc2)nc1C(=O)NS(C)(=O)=O` [Example 317, 2-[benzyl-[2-(4-methylsulfonylphenyl)ethyl]amino]-5-methyl-N-methylsulfonyl-thiazole-4-carboxamide], 501 nM.
Regarding `Cc1ccc(S(=O)(=O)n2cc(CCN(Cc3ccccc3)c3nc(C(=O)NS(C)(=O)=O)c(C)s3)c3ccccc32)cc1` [Example 318, 2-[benzyl-[2-[1-(p-tolylsulfonyl)indol-3-yl]ethyl]amino]-5-methyl-N-methylsulfonyl-thiazole-4-carboxamide], the EC50 is greater than 2000 nM.
Under `Cc1sc(N(CCC2CCN(C(=O)OC(C)(C)C)CC2)Cc2ccccc2)nc1C(=O)NS(C)(=O)=O` [Example 319, tert-butyl 4-[2-[benzyl-[5-methyl-4-(methylsulfonylcarbamoyl)thiazol-2-yl]amino]ethyl]piperidine-1-carboxylate] stands greater than 2000 nM.
